Measured values: patent publication US10619133B2, “Engineered living tissue substitute” (NATIONAL UNIVERSITY OF IRELAND, GALWAY, priority 2011, dated 2020)

Experiments:
[1] = system: enzymatic activity; settings: cited from earlier work
[2] = system: human umbilical arterial smooth muscle cells (HUASMC); experiment: ECM / collagen-1 deposition in human umbilical arterial smooth muscle cells; format: cell-based; settings: 0, 25, 50, 100 μM ascorbic acid; p>0.05
Description: Human lung fibroblasts (WI-38; American Tissue Culture Collection), Human skin fibroblasts (WS-1; American Tissue Culture Collection) were routinely cultured in Dulbecco's modified Eagle medium with 10% fetal bovine serum (FBS), 1% penicillin-streptomycin at 37° C. in a humidified atmosphere of 5% CO2. Commercially available Smooth Muscle Growth Medium-2 (CLONETICS® SmGM®-2) and supplements (SmGM-2 SingleQuots) were used for human umbilical arterial smooth muscle cells (HUASMC; CLONETICS® UASMC-Human Umbilical Artery Smooth Muscle Cells; Lonza CC-2579). Cells were seeded at 50,000 cells/well in 24-well plates and were allowed to attach for 24 hours. […] To induce collagen synthesis, fibroblasts were supplemented with 100 μM L-ascorbic acid phosphate. The HUASMC was supplemented with various concentration of ascorbic acid (0 μM, 25 μM, 50 μM and 100 μM). In some of the experiment commercially available human serum (Lonza, Belgium) was also used as supplement in place of FBS. At the end of culture time points, culture media were collected into separate vials, whereas cell layers were washed twice with Hank's balanced salt solution (HBSS). […] Cell layer and Medium samples were analyzed by SDS-PAGE under nonreducing conditions with Mini-Protean 3 (Bio-Rad Laboratories). […] Collagen bands were quantified by defining each band with the rectangular tool with background subtraction.

Row | Structure (SMILES) | effect on enzymatic activity [1] | effect of ascorbic acid on ECM deposition [2]
1 | OC[C@H]1O[C@@](CO)(O[C@H]2O[C@H](CO)[C@@H](O)[C@H](O)[C@H]2O)[C@@H](O)[C@@H]1O [Sucrose] | Ineffective | –
2 | O=C1O[C@H]([C@@H](O)CO)C(O)=C1O [ascorbic acid] | – | did not affected ECM deposition
